Experimental findings from patent US20200179528A9, “IMMUNE CELL-TARGETED PARTICLES” (Dana-Farber Cancer Institute, Inc., priority 2015, published 2020) are described below.

Data set [1] is described as follows: Loading of other small molecules into the nanoparticles and their release. The data set is classed as physicochemical. Conditions: 10%, 20% or 40% small molecule. Here is the method:
The formulation procedure used is the same as that used in FIG. 1. Release was measured by absorbance maximum at 280 nm, 300 nm, and 340 nm, respectively. 22.5 mg of PLGA and 7.5 mg of PLGA-PEG were used along with 3 mg (10%), 6 mg (20%), or 12 mg (40%) of small molecule. Note that the release profile can be delayed by loading less drug. Note that the encapsulation efficiency can increase (epacadostat) or decrease (resiquimod, ruxolitinib) by increasing initial loading amount.

Data set [2] in a line: SD-208 solubility, loading and release from PEG-PLGA nanoparticles. The data set is classed as physicochemical. Here is the method:
PLGA-based nanoparticles were prepared using single-emulsion evaporation. PLGA (AP041, acid end-capped, 50:50, 10-15 kDa, Akina) was blended with Mal-PEG-PLGA (AI53, diblock copolymer, 50:50, 5-10 kDa, Akina) at 25% w/w. The polymers were dissolved in 1 mL dichloromethane (Sigma) and added to 6 mL of ice-cold 0.25% PVA (30,000-70,000 g/mol, Sigma) in 50 mM phosphate buffer, pH 5.8. The two phases were emulsified using a sonic probe (Qsonica Q700 with microtip, amplitude 10, 3 s power with 2 s break). […] The emulsion was stirred at room temperature for 3 h to evaporate the dichloromethane and afterwards purified by two wash-spin cycles in PBS at 20,000 g for 10 min. Nanoparticles s were assessed for size distribution using a Zetasizer Nano series ZS90, and drug encapsulation was determined by absorbance at 370 nm.
Encapsulation efficiency and drug release kinetics were analyzed by its absorbance maximum at 370 nm (FIG. 43A).

The subject of a further data set is CD8+ T cells. The data set can be described thus: CD8+ T cell activation with anti-CD3/CD28 beads in presence of TGFβ1 (proliferation, granzyme B, IFNγ). Type of data set: cell-based, mouse. Here is the method: FIG. 34. […] Intracellular granzyme B expression was assessed by flow cytometry, n=3±SD. […] Fold change of interferon-γ (IFNγ) was measured by ELISA, n=4±SEM.
In vitro binding of nanoparticles was assessed after incubation of 250,000 enriched T cells with fluorescently (DiD, Life Technologies) labelled nanoparticles at different concentrations for 30 min at 37° C. After the incubation, T cells were washed 3 to 5 times in PBS and directly assessed by flow cytometry for DiD fluorescence. T cells isolated from OT-I Rag^−/− mice were activated by Dynabeads Mouse T-Activator CD3/CD28 (Thermo Scientific) at a ratio of 2:1 T cell to bead or by ova-expressing B16 melanoma cells at a ratio of 10:1 T cell to B16 cell. Carboxyfluorescein succinimidyl ester (CFSE, BioLegend) or cell trace violet (CTV, Thermo Scientific) was used to assess T cell proliferation; the labeling was carried out according to the manufacturer's recommendations. Mouse TGFβ1 was purchased from Cell Signaling Technologies, and T cell supernatants were analyzed by mouse IFN-γ ELISA MAX™ (BioLegend).

[3] abbreviates: SD-208 released from nanoparticles versus free inhibitor in DMSO.

As to `NS(=O)(=O)NCCNc1nonc1/C(=N/O)Nc1ccc(F)c(Br)c1` [epacadostat], the “change of encapsulation efficiency by increasing initial loading amount” value in data set [1] was “increase”.
On the same count and under the same terms, to `N#CC[C@H](C1CCCC1)n1cc(-c2ncnc3[nH]ccc23)cn1` [ruxolitinib] belongs “decrease”.
In the case of `Fc1ccc(Cl)cc1-c1nc(Nc2ccncc2)c2nccnc2n1` [SD-208], in data set [2], the “amount entrapped in PEG-PLGA nanoparticles” value is recorded as 20 μg/mg polymer and the water solubility result was “poorly water soluble”. In addition, in data set [2] (PBS containing 10% serum), the “release from the nanoparticles” value is given as “released slowly from the nanoparticles over the course of weeks”. Moreover, the “TGFβ-mediated inhibition of T cell proliferation” value in the data set on CD8+ T cells (SD-208 released from nanoparticles versus free SD-208, TGFβ1 2 ng/mL, 72 hours) is recorded as “reversed in a comparable manner”. Further, in the data set with CD8+ T cells (setting [3]), the “granzyme B” value is given as “upregulated to a similar extent as free inhibitor” and the “interferon γ (IFNγ)” value is recorded as “upregulated to a similar extent as free inhibitor”.
